Holding throughout (assay): Z'-LYTE kinase panel
What all share (format): biochemical

The target in assay [1] is T1, MAPK8 (JNK1) (Homo sapiens, UniProt P45983).
T1 construct: purchased ThermoFisher (SelectScreen, Z'-LYTE)
The conditions noted are these: 10 µM compound; ATP 100. In short, it runs like this:
(§1)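 A panel of 225 kinases is tested by Z′-LYTE under the standard protocol, with compounds at 10 µM and results given as percentage inhibition.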

The target in assay [2] is T2, EPHB1 (Homo sapiens, UniProt P54762).
T2 construct: purchased ThermoFisher (SelectScreen, Z'-LYTE)
T2 sequence (P54762 18-984): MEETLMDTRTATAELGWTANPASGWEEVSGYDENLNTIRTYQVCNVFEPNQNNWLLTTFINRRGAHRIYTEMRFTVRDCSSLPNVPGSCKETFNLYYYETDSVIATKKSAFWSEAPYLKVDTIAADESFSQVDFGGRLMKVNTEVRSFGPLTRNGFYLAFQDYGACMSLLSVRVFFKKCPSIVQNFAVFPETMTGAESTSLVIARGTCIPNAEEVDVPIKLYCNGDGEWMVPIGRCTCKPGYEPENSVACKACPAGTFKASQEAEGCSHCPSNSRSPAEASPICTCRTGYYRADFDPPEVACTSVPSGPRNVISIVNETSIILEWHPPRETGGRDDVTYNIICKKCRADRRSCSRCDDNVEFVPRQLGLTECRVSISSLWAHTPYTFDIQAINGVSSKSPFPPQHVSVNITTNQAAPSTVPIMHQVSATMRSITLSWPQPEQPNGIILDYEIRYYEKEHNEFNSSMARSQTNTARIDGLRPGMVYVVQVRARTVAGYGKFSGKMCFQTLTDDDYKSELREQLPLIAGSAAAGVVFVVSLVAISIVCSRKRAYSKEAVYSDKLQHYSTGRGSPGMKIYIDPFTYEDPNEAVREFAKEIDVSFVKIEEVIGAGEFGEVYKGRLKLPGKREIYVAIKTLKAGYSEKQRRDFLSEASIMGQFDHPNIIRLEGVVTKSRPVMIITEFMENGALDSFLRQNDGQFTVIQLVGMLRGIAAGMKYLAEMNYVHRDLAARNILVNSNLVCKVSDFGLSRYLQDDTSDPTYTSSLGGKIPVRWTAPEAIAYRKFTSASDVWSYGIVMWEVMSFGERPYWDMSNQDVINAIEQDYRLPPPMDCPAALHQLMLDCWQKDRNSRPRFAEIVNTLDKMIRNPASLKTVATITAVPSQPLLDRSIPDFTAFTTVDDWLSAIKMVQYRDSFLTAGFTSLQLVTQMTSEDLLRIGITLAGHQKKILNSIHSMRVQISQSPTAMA
In short, it runs like this: as §1

In assay [3] the target is T3, IKBKB (IKK beta) (Homo sapiens, UniProt O14920).
T3 construct: purchased ThermoFisher (SelectScreen, Z'-LYTE)
T3 sequence (O14920 1-756): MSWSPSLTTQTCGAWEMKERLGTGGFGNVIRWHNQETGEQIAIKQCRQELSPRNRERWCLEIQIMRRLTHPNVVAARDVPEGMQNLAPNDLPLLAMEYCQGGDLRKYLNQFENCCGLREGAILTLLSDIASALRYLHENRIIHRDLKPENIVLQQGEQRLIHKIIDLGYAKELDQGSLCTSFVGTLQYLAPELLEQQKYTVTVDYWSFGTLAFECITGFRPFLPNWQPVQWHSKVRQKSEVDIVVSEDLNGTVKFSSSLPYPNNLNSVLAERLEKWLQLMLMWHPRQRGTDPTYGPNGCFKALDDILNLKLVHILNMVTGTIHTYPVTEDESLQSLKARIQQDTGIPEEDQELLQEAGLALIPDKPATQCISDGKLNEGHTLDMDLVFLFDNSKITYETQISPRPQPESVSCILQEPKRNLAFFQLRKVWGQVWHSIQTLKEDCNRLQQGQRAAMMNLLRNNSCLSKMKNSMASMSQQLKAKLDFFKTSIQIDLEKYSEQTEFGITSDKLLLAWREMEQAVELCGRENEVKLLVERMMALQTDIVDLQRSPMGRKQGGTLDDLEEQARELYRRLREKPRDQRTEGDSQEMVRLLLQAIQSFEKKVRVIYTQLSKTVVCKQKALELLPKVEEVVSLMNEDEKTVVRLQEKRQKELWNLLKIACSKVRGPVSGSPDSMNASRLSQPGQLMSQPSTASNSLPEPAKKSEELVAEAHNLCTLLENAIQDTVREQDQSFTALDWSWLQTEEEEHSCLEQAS
In short, it runs like this:
as §1

The target in assay [4] is T4, LCK (Homo sapiens, UniProt P06239).
T4 construct: purchased ThermoFisher (SelectScreen, Z'-LYTE)
The gist of the method:
as §1

The target of assay [5] is T5, CSNK1E (CK1 epsilon) (Homo sapiens, UniProt P49674).
T5 construct: purchased ThermoFisher (SelectScreen, Z'-LYTE)
In short, it runs like this:
as §1

Assay [6] addresses T6, FLT1 (VEGFR1) (Homo sapiens, UniProt P17948).
T6 construct: purchased ThermoFisher (SelectScreen, Z'-LYTE)
The gist of the method: as §1

Assay [7] deals with T7, CAMK2A (CaMKII alpha) (Homo sapiens, UniProt Q9UQM7).
T7 construct: purchased ThermoFisher (SelectScreen, Z'-LYTE)
The gist of the method:
as §1

The target of assay [8] is T8, CHEK1 (CHK1) (Homo sapiens, UniProt O14757).
T8 construct: purchased ThermoFisher (SelectScreen, Z'-LYTE)
T8 sequence (O14757 1-476): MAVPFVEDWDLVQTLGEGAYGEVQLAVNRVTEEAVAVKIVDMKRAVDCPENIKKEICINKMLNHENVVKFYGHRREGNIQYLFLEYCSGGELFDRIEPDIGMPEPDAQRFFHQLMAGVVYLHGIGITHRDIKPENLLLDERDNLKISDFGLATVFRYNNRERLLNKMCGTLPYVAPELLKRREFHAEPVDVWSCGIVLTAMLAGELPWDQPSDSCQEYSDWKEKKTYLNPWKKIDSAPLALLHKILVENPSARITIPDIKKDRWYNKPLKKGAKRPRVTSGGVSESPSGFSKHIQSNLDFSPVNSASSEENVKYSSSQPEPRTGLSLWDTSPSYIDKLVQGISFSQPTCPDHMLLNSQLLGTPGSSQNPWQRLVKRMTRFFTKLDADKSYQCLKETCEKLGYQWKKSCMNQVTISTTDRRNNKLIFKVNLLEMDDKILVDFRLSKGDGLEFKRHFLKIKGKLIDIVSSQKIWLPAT
The gist of the method: as §1

Assay [9] concerns the target T9, BRAF (Homo sapiens, UniProt P15056).
T9 construct: purchased ThermoFisher (SelectScreen, Z'-LYTE)
The conditions noted are these: 10 µM compound; ATP 100. The gist of the method:
as §1

In assay [10] the target is T10, MARK2 (Homo sapiens, UniProt Q7KZI7).
T10 construct: purchased ThermoFisher (SelectScreen, Z'-LYTE)
The gist of the method:
as §1

The text below walks through data of paper PMC4854315, “Discovery of a novel allosteric inhibitor-binding site in ERK5: comparison with the canonical kinase hinge ATP-binding site” (Acta Crystallographica. Section D, Structural Biology, 2016).

The inhibition is the relative decrease from the control value, in per cent.

T4 sequence (P06239 whole entry): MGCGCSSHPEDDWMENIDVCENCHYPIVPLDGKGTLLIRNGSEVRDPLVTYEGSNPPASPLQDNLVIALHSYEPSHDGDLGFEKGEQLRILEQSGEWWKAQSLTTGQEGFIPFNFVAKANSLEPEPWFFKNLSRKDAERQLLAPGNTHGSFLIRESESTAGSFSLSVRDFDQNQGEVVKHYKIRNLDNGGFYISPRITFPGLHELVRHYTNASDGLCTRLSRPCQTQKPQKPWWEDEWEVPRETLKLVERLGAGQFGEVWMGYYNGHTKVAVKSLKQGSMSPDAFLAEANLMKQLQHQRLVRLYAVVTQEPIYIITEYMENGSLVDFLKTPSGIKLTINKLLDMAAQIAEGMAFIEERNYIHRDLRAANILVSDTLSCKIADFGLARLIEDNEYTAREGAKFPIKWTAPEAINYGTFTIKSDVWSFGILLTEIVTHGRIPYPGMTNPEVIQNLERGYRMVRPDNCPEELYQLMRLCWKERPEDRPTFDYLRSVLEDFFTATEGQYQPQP
T5 sequence (P49674 whole entry): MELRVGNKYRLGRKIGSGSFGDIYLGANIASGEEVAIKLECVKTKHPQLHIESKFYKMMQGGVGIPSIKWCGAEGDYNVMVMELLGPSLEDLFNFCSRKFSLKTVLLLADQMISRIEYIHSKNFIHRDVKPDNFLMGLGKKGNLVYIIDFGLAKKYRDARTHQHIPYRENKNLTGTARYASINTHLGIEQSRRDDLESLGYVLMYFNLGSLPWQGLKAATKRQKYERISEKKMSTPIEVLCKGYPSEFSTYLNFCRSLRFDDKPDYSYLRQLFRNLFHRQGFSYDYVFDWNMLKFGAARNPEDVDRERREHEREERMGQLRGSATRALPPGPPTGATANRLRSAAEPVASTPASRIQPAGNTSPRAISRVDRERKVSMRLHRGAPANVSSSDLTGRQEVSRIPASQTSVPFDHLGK
T1 sequence (P45983 whole entry): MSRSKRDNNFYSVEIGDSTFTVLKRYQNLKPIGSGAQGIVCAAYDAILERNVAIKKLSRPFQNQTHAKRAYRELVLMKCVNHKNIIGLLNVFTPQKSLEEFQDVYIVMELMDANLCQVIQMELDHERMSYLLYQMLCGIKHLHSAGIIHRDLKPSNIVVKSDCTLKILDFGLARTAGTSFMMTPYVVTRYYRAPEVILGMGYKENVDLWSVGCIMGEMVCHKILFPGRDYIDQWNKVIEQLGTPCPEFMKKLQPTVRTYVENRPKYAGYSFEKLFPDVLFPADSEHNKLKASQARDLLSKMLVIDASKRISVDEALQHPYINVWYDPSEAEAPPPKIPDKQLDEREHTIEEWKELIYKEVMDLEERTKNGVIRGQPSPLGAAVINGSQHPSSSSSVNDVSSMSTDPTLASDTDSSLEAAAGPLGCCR
T10 sequence (Q7KZI7 whole entry): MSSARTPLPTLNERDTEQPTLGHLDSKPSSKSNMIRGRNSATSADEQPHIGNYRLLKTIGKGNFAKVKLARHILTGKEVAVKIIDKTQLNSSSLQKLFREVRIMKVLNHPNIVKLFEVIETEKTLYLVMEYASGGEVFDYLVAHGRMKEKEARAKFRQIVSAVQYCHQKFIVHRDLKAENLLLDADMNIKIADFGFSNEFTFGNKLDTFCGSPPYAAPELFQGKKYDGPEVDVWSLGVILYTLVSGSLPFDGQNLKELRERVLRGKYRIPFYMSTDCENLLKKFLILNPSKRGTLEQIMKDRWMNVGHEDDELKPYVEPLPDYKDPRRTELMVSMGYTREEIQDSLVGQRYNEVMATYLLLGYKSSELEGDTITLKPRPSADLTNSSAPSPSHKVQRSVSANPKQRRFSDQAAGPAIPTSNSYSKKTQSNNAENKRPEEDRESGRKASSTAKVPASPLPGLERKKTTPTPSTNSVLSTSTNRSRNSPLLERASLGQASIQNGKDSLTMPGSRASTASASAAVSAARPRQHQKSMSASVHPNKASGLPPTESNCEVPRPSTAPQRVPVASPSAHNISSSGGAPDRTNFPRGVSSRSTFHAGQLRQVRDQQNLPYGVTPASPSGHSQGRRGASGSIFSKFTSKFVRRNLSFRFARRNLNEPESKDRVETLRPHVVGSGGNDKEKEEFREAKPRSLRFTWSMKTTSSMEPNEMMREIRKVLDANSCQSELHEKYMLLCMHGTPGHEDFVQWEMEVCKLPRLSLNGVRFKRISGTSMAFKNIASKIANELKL
T9 sequence (P15056 whole entry): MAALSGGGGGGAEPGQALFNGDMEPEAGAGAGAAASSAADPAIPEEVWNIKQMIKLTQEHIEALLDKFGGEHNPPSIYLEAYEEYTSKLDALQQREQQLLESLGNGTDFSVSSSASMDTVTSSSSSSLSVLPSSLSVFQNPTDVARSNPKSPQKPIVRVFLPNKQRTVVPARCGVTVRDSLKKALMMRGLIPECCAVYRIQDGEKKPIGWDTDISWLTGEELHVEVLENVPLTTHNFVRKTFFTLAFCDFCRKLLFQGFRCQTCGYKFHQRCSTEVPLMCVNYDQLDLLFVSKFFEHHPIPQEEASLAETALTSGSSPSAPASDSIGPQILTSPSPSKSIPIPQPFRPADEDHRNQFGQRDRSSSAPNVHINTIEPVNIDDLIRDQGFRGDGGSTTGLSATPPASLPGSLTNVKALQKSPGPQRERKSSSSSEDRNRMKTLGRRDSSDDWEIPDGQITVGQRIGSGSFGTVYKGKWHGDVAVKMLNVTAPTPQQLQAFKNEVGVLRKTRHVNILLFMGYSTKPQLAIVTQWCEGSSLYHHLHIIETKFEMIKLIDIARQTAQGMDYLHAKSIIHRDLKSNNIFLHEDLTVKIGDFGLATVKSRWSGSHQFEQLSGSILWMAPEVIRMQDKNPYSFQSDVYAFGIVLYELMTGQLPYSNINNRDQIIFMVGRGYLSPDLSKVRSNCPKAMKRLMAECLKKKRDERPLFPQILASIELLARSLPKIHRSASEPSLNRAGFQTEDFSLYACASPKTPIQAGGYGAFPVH
T6 sequence (P17948 27-1338): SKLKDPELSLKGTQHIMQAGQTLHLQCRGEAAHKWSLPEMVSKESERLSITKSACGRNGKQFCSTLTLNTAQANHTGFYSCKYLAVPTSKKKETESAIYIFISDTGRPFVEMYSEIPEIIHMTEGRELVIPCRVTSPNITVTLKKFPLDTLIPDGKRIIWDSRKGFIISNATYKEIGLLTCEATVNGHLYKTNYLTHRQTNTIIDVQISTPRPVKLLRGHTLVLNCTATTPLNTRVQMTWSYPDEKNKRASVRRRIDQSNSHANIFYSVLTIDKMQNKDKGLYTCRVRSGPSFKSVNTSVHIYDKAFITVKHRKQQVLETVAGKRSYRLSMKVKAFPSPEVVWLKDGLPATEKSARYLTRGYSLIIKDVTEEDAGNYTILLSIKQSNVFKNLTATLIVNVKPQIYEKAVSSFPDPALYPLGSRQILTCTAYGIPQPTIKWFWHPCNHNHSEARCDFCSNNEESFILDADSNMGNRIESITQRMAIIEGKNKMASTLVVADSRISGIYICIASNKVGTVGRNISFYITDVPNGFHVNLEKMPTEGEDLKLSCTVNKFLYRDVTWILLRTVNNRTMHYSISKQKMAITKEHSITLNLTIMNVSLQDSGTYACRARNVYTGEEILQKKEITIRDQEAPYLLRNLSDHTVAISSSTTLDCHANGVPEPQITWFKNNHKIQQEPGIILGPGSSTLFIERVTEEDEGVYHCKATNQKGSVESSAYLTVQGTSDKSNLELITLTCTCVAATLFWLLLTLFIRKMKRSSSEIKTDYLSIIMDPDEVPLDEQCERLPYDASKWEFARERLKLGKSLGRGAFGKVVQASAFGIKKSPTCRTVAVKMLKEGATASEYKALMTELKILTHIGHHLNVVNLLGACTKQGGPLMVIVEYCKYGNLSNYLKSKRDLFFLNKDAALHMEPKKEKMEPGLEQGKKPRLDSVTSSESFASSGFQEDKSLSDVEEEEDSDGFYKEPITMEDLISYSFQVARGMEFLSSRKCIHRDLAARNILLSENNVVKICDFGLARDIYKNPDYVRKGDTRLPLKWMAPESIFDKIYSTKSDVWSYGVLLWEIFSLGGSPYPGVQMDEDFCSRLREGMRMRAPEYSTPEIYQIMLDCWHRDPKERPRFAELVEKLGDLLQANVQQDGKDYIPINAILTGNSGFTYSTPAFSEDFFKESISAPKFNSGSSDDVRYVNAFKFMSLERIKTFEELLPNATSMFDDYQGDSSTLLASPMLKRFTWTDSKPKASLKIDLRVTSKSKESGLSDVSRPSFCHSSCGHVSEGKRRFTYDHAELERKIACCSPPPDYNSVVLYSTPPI

As to “XMD8-92 [Compound 2, reference compound]”, the “MAPK8 (JNK1) % Inhibition” value in [1] amounted to 14%. Besides, the “EPHB1 % Inhibition” value in [2] (10 µM compound, ATP Km app) is listed as 5.39%. In addition, the “IKBKB (IKK beta) % Inhibition” value in assay [3] (10 µM compound, ATP Km app) came out at 44%. In addition, in [4] (10 µM compound, ATP Km app), the “LCK % Inhibition” value was found to be 15%. In addition, in [5] (10 µM compound, ATP Km app), the “CSNK1E (CK1 epsilon) % Inhibition” value is 4%. Besides, the “FLT1 (VEGFR1) % Inhibition” value in assay [6] (10 µM compound, ATP Km app) is -1.58%. The “CAMK2A (CaMKII alpha) % Inhibition” value in assay [7] (10 µM compound, ATP Km app) amounted to 59%. For the same compound, the “CHEK1 (CHK1) % Inhibition” value in assay [8] (10 µM compound, ATP Km app) is 8%. Also, in assay [9], the “BRAF % Inhibition” value is given as 15%. In addition, the “MARK2 % Inhibition” value in [10] (10 µM compound, ATP Km app) is given as 9%.

`Cc1cc(Nc2nc(N)nn2C(=O)NC(C)C)ccc1Cl` [Compound 5]: the inhibition at 10 µM is -11% in assay [1]; 7.51% in [2]; 3.42% in assay [3]; 29% in assay [4]; 2.61% in assay [5]; 34% in assay [6]. The inhibition at 10 µM in assay [7] is -10%; in assay [8], 14%; in assay [9], 12%; in assay [10] it was 24%.

With `Cc1ncc(-c2nc(Nc3ccc(C(=O)NCCN4CCCCC4)cc3)ncc2F)n1C(C)C` [Compound 3], the inhibition at 10 µM in [1] was determined as 96%; in assay [2] it was 94%; in assay [3], 33%; in assay [4] it was 94%; in [5] it was 81%; in [6] it was 73%. Also, the inhibition at 10 µM is 89% in assay [7], 87% in [8], 90% in assay [9] and 89% in assay [10].
